Data on ten compounds can be found in article PMC8567988 (Frontiers in Microbiology, 2021).

Data set [1] relates to ASFV Ba71V strain. The format is cell-based, African swine fever virus.
In data set [2] the test system is ASFV Ba71V strain.
The subject of data set [3] is ASFV Ba71V strain. The data set is described as follows: microbe, parasite or virus in culture. The note with it: African swine fever virus, Vero, 72 h, read-out: inhibition of ASFV-induced CPE.
A further data set deals with ASFV. In kind it is cell-based, African swine fever virus.
A short description of a further data set: in vitro. The note with it: African green monkey.
Data set [4] has as its system ASFV Ba71V strain. The data set is described as follows: microbe, parasite or virus in culture. The format is cell-based, African swine fever virus.
Data set [5] concerns ASFV Ba71V strain. Nature of the data set: microbe, parasite or virus in culture. The format is cell-based, African swine fever virus. The source holds these as a separate data set.
For data set [6], the system named is ASFV Ba71V strain. The format is cell-based, African swine fever virus. This is another data set of the same source.
The subject of data set [7] is ASFV Ba71V. The format is cell-based, African swine fever virus.
Data set [8] deals with ASFV Ba71V. The format is cell-based, African swine fever virus. This is another data set of the same source.
The subject of data set [9] is ASFV Ba71V strain. The data set is described as follows: microbe, parasite or virus in culture. The format is cell-based, African swine fever virus. The source holds these as a separate data set.
The subject of data set [10] is ASFV Ba71V. The format is cell-based, African swine fever virus. The source holds these as a separate data set.
The next data set deals with ASFV protein (pA104R). The format is cell-based, African swine fever virus.
Data set [11] relates to ASFV Ba71V. The format is cell-based, African swine fever virus. The source holds these as a separate data set.
Data set [12] concerns ASFV Arm/07 isolate. In kind it is cell-based, African swine fever virus.
Data set [13] deals with ASFV Arm/07 isolate. The format is cell-based, African swine fever virus. This is another data set of the same source.
The subject of data set [14] is ASFV Arm/07 isolate. In kind it is cell-based, African swine fever virus. This is another data set of the same source.
Data set [15] has as its system ASFV Arm/07 isolate. In kind it is cell-based, African swine fever virus. The source holds these as a separate data set.
In data set [16] the test system is autophagic vacuoles in Vero cells. In kind it is cell-based, African green monkey.
For data set [17] the following is noted: in vivo; cited from earlier work.

“And” between values parts separate entries of the source, which are not always exact repeats. Equal values may be shown once. Read-outs that look alike come from different tables or passages of the source.

Usually inhibition stands for how much of the control response was suppressed. For `O=c1cc(-c2ccccc2)oc2c1ccc1ccccc12` [7,8-benzoflavone], the “ASFV yield after virucidal pre-incubation” value in the data set on ASFV Ba71V strain [1] is 4.64±0.09 log TCID50/ml. Further, the “cell monolayer damage upon treatment” value in the data set on ASFV Ba71V strain [2] was “no apparent cell monolayer damage”. Besides, in the data set with ASFV Ba71V strain [3], the inhibition at 10 µg/mL is over 40%.

On to `Oc1c2ccccc2c2c3c(cccc13)N=N2` [SP600125, reference compound], for which, in the data set with ASFV, the “effect of the inhibitor alone on ASFV infection” value is reported as “only a slight effect on ASFV infection”.

With `COc1ccc(-c2coc3cc(O)ccc3c2=O)cc1O` [calycosin], the “cell monolayer damage upon treatment” value in the data set with ASFV Ba71V strain [2] is “no apparent cell monolayer damage”. The inhibition at 20 µg/mL in the data set on ASFV Ba71V strain [3] is over 40%.

Consider `COc1ccc(-c2cc(=O)c3c(O)cc(O[C@@H]4O[C@H](CO[C@@H]5O[C@@H](C)[C@H](O)[C@@H](O)[C@H]5O)[C@@H](O)[C@H](O)[C@H]4O)cc3o2)cc1O` [diosmin], for which the “cell monolayer damage upon treatment” value with ASFV Ba71V strain [2] is “no apparent cell monolayer damage”. Besides, the CC50 in “in vitro” was 33.1 µg/mL and 54.4 µM. Moreover, the inhibition at 10 µg/mL with ASFV Ba71V strain [3] is over 40%.

Usually viability stands for the share of living cells, or the viability signal relative to a control. Take `COc1ccc(-c2cc(=O)c3c(OC)cc(OC)c(OC)c3o2)cc1OC` [isosinensetin]: the “cell monolayer damage upon treatment” value in the data set on ASFV Ba71V strain [2] is reported as “no apparent cell monolayer damage”. Also, in the data set “in vitro”, the CC50 is 24.8 µg/mL and 66.6 µM; the viability turned out to be 58.5%. For the same compound, in the data set on ASFV Ba71V strain [3], the inhibition at 20 µg/mL is over 40%.

As usually defined, the IC50 is the concentration that inhibits the measured activity by half. Turning to `O=c1c(O)c(-c2ccc(O)cc2)oc2cc(O)cc(O)c12` [kaempferol, 3,5,7-trihydroxy-2-(4-hydroxyphenyl)-4H-chromen-4-one], in the data set on ASFV Ba71V strain [4], the viral yield is 3.98±0.19 log TCID50/ml. Also, the inhibition at 20 µg/mL with ASFV Ba71V strain [4] (African swine fever virus, Vero, 24 h, read-out: inhibition of ASFV infection) is over 92%. Also, the virucidal effect entry with ASFV Ba71V strain [1] was “no virucidal effects”. In the data set with ASFV Ba71V strain [5], the “antiviral effect, log decrease of ASFV titer” value is 1.26 log. For the same compound, in the data set on ASFV Ba71V strain [5] (African swine fever virus, Vero), the half-maximal inhibitory concentration (IC50) was 2.2 µg/mL and 7.7 µM. Moreover, the “inhibition, log decrease of ASFV titer” value in the data set on ASFV Ba71V strain [6] was found to be 1.21 log. In addition, in the data set on ASFV Ba71V [7], the “viral titers as the interval between infection and removal increased” value is given as “gradual declines in viral titers”. In the data set on ASFV Ba71V [8], the “inhibitory effect on ASFV infection” value is “no significant inhibitory effect”; the “suppression of viral infection” value is listed as “more than 90%”; the viral titer reduction is 1.25 log and 1.1 log. In the data set with ASFV Ba71V strain [9], the “inhibition of the ASFV yield” value was “more than 60%”; the “viral titer, attachment experiment” value is given as 3.97±0.25 log TCID50/ml; the “virus titer, internalization experiment” value came to 3.63±0.11 log TCID50/ml. Besides, the inhibition at 20 µg/mL with ASFV Ba71V strain [9] (African swine fever virus, Vero, read-out: inhibition of the ASFV yield, attachment experiment) was about 60%. The “plaque numbers (virus spread)” value with ASFV Ba71V [10] is “significant reduction in plaque numbers in a dose-dependent manner”. For the same compound, the “viral protein synthesis (late protein pA104R)” value with ASFV protein (pA104R) is “viral protein synthesis was reduced”. In the data set with ASFV Ba71V [11], the “decrease of viral DNA in viral factories vs untreated control” value is on record as 31%. Also, in the data set with ASFV Arm/07 isolate [12], the anti-ASFV activity entry is given as “Anti-ASFV activity was observed” and the viral titer was determined as 3.4±0.14 log HADU50/ml. In addition, in the data set on ASFV Arm/07 isolate [13], the “inhibition, log decrease of titer” value is on record as “about 2 log”. Further, the “effect on ASFV entry” value with ASFV Arm/07 isolate [14] is “could hinder the ASFV attachment and internalization processes”. In the data set with ASFV Arm/07 isolate [15], the “decrease in the amount of viral DNA in ASFV factories” value is on record as 39%. The “formation of autophagic vacuoles” value in [16] is reported as “induced the formation of autophagic vacuoles”. Besides, the “antiviral activity in the presence of autophagy inhibitor SP600125” value in the data set on ASFV was “partially abrogated”. For the same compound, the “cell monolayer damage upon treatment” value in the data set on ASFV Ba71V strain [2] is listed as “no apparent cell monolayer damage”. Further, in the data set with porcine macrophages, the “cytotoxicity for porcine cells” value was “not cytotoxic”. Besides, in [17], the human plasma concentration entry is given as “around 58 nm”. Also, the inhibition at 20 µg/mL with ASFV Ba71V strain [3] was over 40%.

In the case of `COc1c2occc2c(OC)c2c(=O)cc(C)oc12` [khellin], the “cell monolayer damage upon treatment” value in the data set on ASFV Ba71V strain [2] is given as “no apparent cell monolayer damage”. Besides, the inhibition at 10 µg/mL in the data set with ASFV Ba71V strain [3] was over 40%.

As to `Oc1ccc2c(c1)OC[C@H]1c3cc4c(cc3O[C@@H]21)OCO4` [maackiain], the “cell monolayer damage upon treatment” value in the data set with ASFV Ba71V strain [2] is “no apparent cell monolayer damage”. Moreover, the inhibition at 20 µg/mL in the data set on ASFV Ba71V strain [3] was over 40%.

For `COc1cc(O)c2c(c1)O[C@H](c1ccc(O)cc1)CC2=O` [sakuranetin], in the data set on ASFV Ba71V strain [2], the “cell monolayer damage upon treatment” value is “no apparent cell monolayer damage”. In the data set with ASFV Ba71V strain [3], the inhibition at 20 µg/mL is over 40%.

With `COc1ccc(-c2cc(=O)c3c(OC)c(OC)c(OC)cc3o2)cc1OC` [sinensetin], the “cell monolayer damage upon treatment” value in the data set with ASFV Ba71V strain [2] is recorded as “no apparent cell monolayer damage”. The CC50 in the data set “in vitro” is 150 µg/mL and 404 µM. In the data set with ASFV Ba71V strain [3], the inhibition at 20 µg/mL is over 40%.
